Experiments:
Tubulin alpha chain = Tubulin alpha chain (Sus scrofa, UniProt P02550); experiment: Compound was evaluated for inhibition of tubulin polymerization; format: functional
MCF7 = experiment: Cytotoxicity was determined by inhibition of cell growth of MCF-7 human breast carcinoma cell; format: functional, cell-based
[1] = target: Tubulin alpha chain (Sus scrofa) (UniProt P02550); experiment: Inhibition of [3H]colchicine binding to tubulin at a concentration of 5.0 uM
[2] = target: Tubulin alpha chain (Sus scrofa) (UniProt P02550); experiment: Inhibition of [3H]colchicine binding to tubulin at a concentration of 50 uM
CA46 = experiment: Cytotoxicity was determined by inhibition against the Burkitt lymphoma CA46 cell line; format: functional, cell-based; conditions: Homo sapiens

Chain of Tubulin alpha chain (P02550 whole entry, looked up): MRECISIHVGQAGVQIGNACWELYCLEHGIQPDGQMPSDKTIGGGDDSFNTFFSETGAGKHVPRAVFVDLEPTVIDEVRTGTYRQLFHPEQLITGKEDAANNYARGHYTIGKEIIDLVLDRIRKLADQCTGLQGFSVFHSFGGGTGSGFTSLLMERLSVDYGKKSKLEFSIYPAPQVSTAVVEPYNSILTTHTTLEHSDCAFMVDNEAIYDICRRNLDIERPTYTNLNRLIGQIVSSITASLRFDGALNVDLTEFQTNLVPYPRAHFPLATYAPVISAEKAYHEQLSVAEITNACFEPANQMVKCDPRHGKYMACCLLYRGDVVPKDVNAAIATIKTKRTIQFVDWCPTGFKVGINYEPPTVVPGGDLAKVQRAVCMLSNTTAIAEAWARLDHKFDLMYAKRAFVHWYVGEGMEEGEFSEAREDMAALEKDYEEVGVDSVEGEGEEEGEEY
Chain of Tubulin alpha chain (Sus scrofa) (P02550 whole entry, looked up): as above

| IC50 (Tubulin alpha chain) [µM] | inhibition [1] [%] | inhibition [2] [%] | SMILES | IC50 (MCF7) [µM] | IC50 (CA46) [µM] |
| --- | --- | --- | --- | --- | --- |
| 1 | 67 |  | COc1ccc(-c2sccc2C(=O)c2cc(OC)c(OC)c(OC)c2)cc1O | 0.3 |  |
| > 40 |  |  | COc1ccc(C(=O)c2ccsc2-c2cc(OC)c(OC)c(OC)c2)cc1O |  |  |
| 8.8 | 26 | 74 | COc1ccc(C(O)c2ccsc2-c2cc(OC)c(OC)c(OC)c2)cc1O (configuration not stated) | 0.5 |  |
| 3.6 | 64 | 88 | COc1ccc(C2=C(c3cc(OC)c(OC)c(OC)c3)CCS2)cc1O | 0.39 |  |

| SMILES | IC50 (Tubulin alpha chain) [µM] | inhibition [1] [%] | inhibition [2] [%] | IC50 (MCF7) [µM] | IC50 (CA46) [µM] |
| --- | --- | --- | --- | --- | --- |
| COc1ccc2c(C(O)c3ccc(OC)c(O)c3)c(-c3cc(OC)c(OC)c(OC)c3)sc2c1 (configuration not stated) | 6.1 | 5 | 73 |  | > 1 |
| COc1ccc2c(C(=O)c3cc(OC)c(OC)c(OC)c3)c(-c3ccc(OC)c(O)c3)sc2c1 |  | 21 |  |  |  |

Source: ChEMBL document CHEMBL1133936, “The synthesis and tubulin binding activity of thiophene-based analogues of combretastatin A-4” (Bioorg Med Chem Lett, 2001)
